Reference: patent US9833497B2, “Human originated EGF domain proteins and use of the same” (CHENGDU SOURCEBIO LIMITED-LIABILITY COMPANY, priority 2013, dated 2017)

Assays:
Format in all cases: cell-based
Citrobacter diversus = test: MIC against Gram-negative bacteria: Citrobacter diversus; details: 5×10^5 CFU/mL
In short: (§1)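 Antibacterial activity of purified human EGF domain proteins: two-fold concentration series, triplicate wells, LB broth, 5×10^5 CFU/mL bacteria, 37° C shaking incubation. The lowest concentration without growth defines the MIC.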

Proteus vulgaris = test: MIC against Gram-negative bacteria: Proteus vulgaris; details: 5×10^5 CFU/mL
In short: as §1

Enterobacter cloacae = test: MIC against Gram-negative bacteria: Enterobacter cloacae; details: 5×10^5 CFU/mL
In short: as §1

Aeromonas hydrophila = test: MIC against Gram-negative bacteria: Aeromonas hydrophila; details: 5×10^5 CFU/mL
In short: as §1

Moraxella catarrhalis = test: MIC against Gram-negative bacteria: Moraxella catarrhalis; details: 5×10^5 CFU/mL
In short: as §1

E. coli BL21 = test: MIC against Gram-negative bacteria: E. coli BL21; details: E. coli BL21, 5×10^5 CFU/mL
In short: as §1

Serratia marcescens = test: MIC against Gram-negative bacteria: Serratia marcescens; details: 5×10^5 CFU/mL
In short: as §1

E. coli DH5α = test: Antibacterial activity: MIC and growth curve against E. coli DH5α in 96-well plate; details: minimal inhibitory concentration against E. coli DH5α; 96-well plate, 5×10^5 CFU/mL, 37° C., judged after 8 h
In short: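 Log-phase bacteria (OD600 ~0.5) resuspended in LB at 5×10^5 CFU/mL, exposed to recombinant protein at 50, 25, 12.5 μg/mL final in triplicate, 37 °C shaking at 175 rpm. OD600 read every 30 min; MIC is lowest concentration showing no growth.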

Proteus mirabilis = test: MIC against Gram-negative bacteria: Proteus mirabilis; details: 5×10^5 CFU/mL
In short: as §1

Pseudomonas aeruginosa = test: MIC against Gram-negative bacteria: Pseudomonas aeruginosa; details: 5×10^5 CFU/mL
In short: as §1

Klebsiella pneumonia = test: MIC against Gram-negative bacteria: Klebsiella pneumonia; details: 5×10^5 CFU/mL
In short: as §1

[1] = C. diversus, 10 h cultivation at 37° C.
[2] = P. vulgaris, 10 h cultivation at 37° C.
[3] = E. cloacae, 10 h cultivation at 37° C.
[4] = A. hydrophila, 10 h cultivation at 37° C.
[5] = M. catarrhalis, 10 h cultivation at 37° C.
[6] = S. marcescens, 10 h cultivation at 37° C.
[7] = P. mirabilis, 10 h cultivation at 37° C.
[8] = P. aeruginosa, 10 h cultivation at 37° C.
[9] = K. pneumonia, 10 h cultivation at 37° C.
[10] = Citrobacter diversus, 96-well plate, 37° C., 10 h
[11] = Proteus vulgaris, 96-well plate, 37° C., 10 h
[12] = Enterobacter cloacae, 96-well plate, 37° C., 10 h
[13] = Aeromonas hydrophila, 96-well plate, 37° C., 10 h
[14] = Moraxella catarrhalis, 96-well plate, 37° C., 10 h
[15] = Serratia marcescens, 96-well plate, 37° C., 10 h
[16] = Proteus mirabilis, 96-well plate, 37° C., 10 h
[17] = Pseudomonas aeruginosa, 96-well plate, 37° C., 10 h
[18] = Klebsiella pneumonia, 96-well plate, 37° C., 10 h

PRT753 (RKDVCKSTHHGCEHICVNNGNSYICKCSEGFVLAEDGRRCK; listed as Homo sapiens)
MIC (μg/mL) C. diversus (Citrobacter diversus; [1]): 12.5 µg/mL | MIC (μg/mL) P. vulgaris (Proteus vulgaris; [2]): 25 µg/mL | MIC (μg/mL) E. cloacae (Enterobacter cloacae; [3]): 12.5 µg/mL | MIC (μg/mL) A. hydrophila (Aeromonas hydrophila; [4]): 50 µg/mL | MIC (μg/mL) M. catarrhalis (Moraxella catarrhalis; [5]): 50 µg/mL | MIC (μg/mL) E. coli BL21 (E. coli BL21; 10 h cultivation at 37° C.): 50 µg/mL | MIC (μg/mL) S. marcescens (Serratia marcescens; [6]): 50 µg/mL | MIC (E. coli DH5α): 25 µg/mL | MIC (μg/mL) P. mirabilis (Proteus mirabilis; [7]): 12.5 µg/mL | MIC (μg/mL) P. aeruginosa (Pseudomonas aeruginosa; [8]): 12.5 µg/mL | MIC (μg/mL) K. pneumonia (Klebsiella pneumonia; [9]): 50 µg/mL

PRT1215 (SNDPCVEKPCPGDMQCVSYEASRRPFLCQCPPGKLGECS; listed as Homo sapiens)
MIC against C. diversus (Citrobacter diversus; [10]): 25 µg/mL | MIC against P. vulgaris (Proteus vulgaris; [11]): 12.5 µg/mL | MIC against E. cloacae (Enterobacter cloacae; [12]): 50 µg/mL | MIC against A. hydrophila (Aeromonas hydrophila; [13]): 12.5 µg/mL | MIC against M. catarrhalis (Moraxella catarrhalis; [14]): 50 µg/mL | MIC against E. coli BL21 (E. coli BL21; 96-well plate, 37° C., 10 h): 50 µg/mL | MIC against S. marcescens (Serratia marcescens; [15]): 25 µg/mL | MIC (E. coli DH5α): 25 µg/mL | MIC against P. mirabilis (Proteus mirabilis; [16]): 25 µg/mL | MIC against P. aeruginosa (Pseudomonas aeruginosa; [17]): 12.5 µg/mL | MIC against K. pneumonia (Klebsiella pneumonia; [18]): 25 µg/mL

PRT13 (PARSCAEEPCGAGTCKETEGHVICLCPPGYTGEHCN; listed as Homo sapiens)
MIC (μg/mL) C. diversus (Citrobacter diversus; [10]): 25 µg/mL | MIC (μg/mL) P. vulgaris (Proteus vulgaris; [11]): 25 µg/mL | MIC (μg/mL) E. cloacae (Enterobacter cloacae; [12]): 12.5 µg/mL | MIC (μg/mL) A. hydrophila (Aeromonas hydrophila; [13]): 12.5 µg/mL | MIC (μg/mL) M. catarrhalis (Moraxella catarrhalis; [14]): 12.5 µg/mL | MIC (μg/mL) E. coli BL21 (E. coli BL21; 96-well plate, 37° C., 10 h): 12.5 µg/mL | MIC (μg/mL) S. marcescens (Serratia marcescens; [15]): 12.5 µg/mL | MIC (E. coli DH5α): 25 µg/mL | MIC (μg/mL) P. mirabilis (Proteus mirabilis; [16]): 50 µg/mL | MIC (μg/mL) P. aeruginosa (Pseudomonas aeruginosa; [17]): 12.5 µg/mL | MIC (μg/mL) K. pneumonia (Klebsiella pneumonia; [18]): 25 µg/mL

PRT1472 (LEHPCASLCCGHGTCIDGIGSFSCDCRSGWEGRFCQ; listed as Homo sapiens)
MIC against C. diversus (Citrobacter diversus; Citrobacter diversus, 10 h cultivation at 37° C.): 12.5 µg/mL | MIC against P. vulgaris (Proteus vulgaris; Proteus vulgaris, 10 h cultivation at 37° C.): 25 µg/mL | MIC against E. cloacae (Enterobacter cloacae; Enterobacter cloacae, 10 h cultivation at 37° C.): 12.5 µg/mL | MIC against A. hydrophila (Aeromonas hydrophila; Aeromonas hydrophila, 10 h cultivation at 37° C.): 25 µg/mL | MIC against M. catarrhalis (Moraxella catarrhalis; Moraxella catarrhalis, 10 h cultivation at 37° C.): 25 µg/mL | MIC against E. coli BL21 (E. coli BL21; 10 h cultivation at 37° C.): 50 µg/mL | MIC against S. marcescens (Serratia marcescens; Serratia marcescens, 10 h cultivation at 37° C.): 50 µg/mL | MIC (E. coli DH5α): 50 µg/mL | MIC against P. mirabilis (Proteus mirabilis; Proteus mirabilis, 10 h cultivation at 37° C.): 12.5 µg/mL | MIC against P. aeruginosa (Pseudomonas aeruginosa; Pseudomonas aeruginosa, 10 h cultivation at 37° C.): 25 µg/mL | MIC against K. pneumonia (Klebsiella pneumonia; Klebsiella pneumonia, 10 h cultivation at 37° C.): 25 µg/mL

PRT829 (FGPSCTLHCDCGGGADCDPVSGQCHCVDGYMGPTCR; listed as Homo sapiens)
MIC (μg/mL) C. diversus (Citrobacter diversus; [1]): 12.5 µg/mL | MIC (μg/mL) P. vulgaris (Proteus vulgaris; [2]): 12.5 µg/mL | MIC (μg/mL) E. cloacae (Enterobacter cloacae; [3]): 50 µg/mL | MIC (μg/mL) A. hydrophila (Aeromonas hydrophila; [4]): 25 µg/mL | MIC (μg/mL) M. catarrhalis (Moraxella catarrhalis; [5]): 25 µg/mL | MIC (μg/mL) E. coli BL21 (E. coli BL21; 10 h cultivation at 37° C.): 25 µg/mL | MIC (μg/mL) S. marcescens (Serratia marcescens; [6]): 12.5 µg/mL | MIC (E. coli DH5α): 50 µg/mL | MIC (μg/mL) P. mirabilis (Proteus mirabilis; [7]): 50 µg/mL | MIC (μg/mL) P. aeruginosa (Pseudomonas aeruginosa; [8]): 12.5 µg/mL | MIC (μg/mL) K. pneumonia (Klebsiella pneumonia; [9]): 25 µg/mL

PRT443 (DIDECENTDACQHECKNTFGSYQCICPPGYQLTHNGKTCQ; listed as Homo sapiens)
MIC (Citrobacter diversus; [1]): 25 µg/mL | MIC (Proteus vulgaris; [2]): 12.5 µg/mL | MIC (Enterobacter cloacae; [3]): 12.5 µg/mL | MIC (Aeromonas hydrophila; [4]): 12.5 µg/mL | MIC (Moraxella catarrhalis; [5]): 12.5 µg/mL | MIC (E. coli BL21; 10 h cultivation at 37° C.): 25 µg/mL | MIC (Serratia marcescens; [6]): 50 µg/mL | MIC (E. coli DH5α): 12.5 µg/mL | MIC (Proteus mirabilis; [7]): 25 µg/mL | MIC (Pseudomonas aeruginosa; [8]): 12.5 µg/mL | MIC (Klebsiella pneumonia; [9]): 12.5 µg/mL

PRT110 (DIDECASSNGTLCAHICINTLGSYRCECREGYIREDDGKTCT; listed as Homo sapiens)
MIC (μg/mL) C. diversus (Citrobacter diversus; [10]): 12.5 µg/mL | MIC (μg/mL) P. vulgaris (Proteus vulgaris; [11]): 12.5 µg/mL | MIC (μg/mL) E. cloacae (Enterobacter cloacae; [12]): 12.5 µg/mL | MIC (μg/mL) A. hydrophila (Aeromonas hydrophila; [13]): 50 µg/mL | MIC (μg/mL) M. catarrhalis (Moraxella catarrhalis; [14]): 50 µg/mL | MIC (μg/mL) E. coli BL21 (E. coli BL21; 96-well plate, 37° C., 10 h): 12.5 µg/mL | MIC (μg/mL) S. marcescens (Serratia marcescens; [15]): 12.5 µg/mL | MIC (E. coli DH5α): 25 µg/mL | MIC (μg/mL) P. mirabilis (Proteus mirabilis; [16]): 12.5 µg/mL | MIC (μg/mL) P. aeruginosa (Pseudomonas aeruginosa; [17]): 25 µg/mL | MIC (μg/mL) K. pneumonia (Klebsiella pneumonia; [18]): 50 µg/mL
